Results published in patent US9499553B2 (CHUGAI SEIYAKU KABUSHIKI KAISHA, priority 2013, dated 2016).

target: T1, human NaPi-IIb (Homo sapiens, UniProt O95436); assay: Inhibitory effect on 33PO4 uptake into human NaPi-IIb-expressing CHO cells; type: cell-based; conditions: read-out: IC50
T1 construct: expressed in transfected cells
T1 sequence (O95436 1-690): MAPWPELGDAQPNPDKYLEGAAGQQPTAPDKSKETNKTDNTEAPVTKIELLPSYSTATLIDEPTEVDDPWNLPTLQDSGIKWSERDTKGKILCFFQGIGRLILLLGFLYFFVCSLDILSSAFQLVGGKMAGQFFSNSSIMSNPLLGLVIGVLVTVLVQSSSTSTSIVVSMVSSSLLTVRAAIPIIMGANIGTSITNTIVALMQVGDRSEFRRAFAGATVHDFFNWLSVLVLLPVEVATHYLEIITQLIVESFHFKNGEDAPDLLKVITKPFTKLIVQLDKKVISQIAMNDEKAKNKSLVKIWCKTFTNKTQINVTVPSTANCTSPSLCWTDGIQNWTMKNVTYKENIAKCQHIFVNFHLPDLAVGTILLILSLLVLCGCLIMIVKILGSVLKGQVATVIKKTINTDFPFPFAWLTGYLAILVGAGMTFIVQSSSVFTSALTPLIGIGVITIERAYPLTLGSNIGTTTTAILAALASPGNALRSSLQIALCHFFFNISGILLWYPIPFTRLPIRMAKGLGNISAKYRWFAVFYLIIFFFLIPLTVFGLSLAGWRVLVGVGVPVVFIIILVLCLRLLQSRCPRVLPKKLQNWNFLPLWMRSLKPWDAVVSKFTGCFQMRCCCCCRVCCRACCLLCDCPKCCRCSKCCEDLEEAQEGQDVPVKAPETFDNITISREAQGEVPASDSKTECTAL
Outline: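 Stable human NaPi-IIb CHO line (G418-selected), plated and cultured overnight; ³³PO4 added in buffer A and uptake run at room temperature. Cells washed with ice-cold buffer A, then uptake counted by liquid scintillation.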

| SMILES | IC50 |
| --- | --- |
| C[C@]12CCCN1N(Cc1ccc(C#CCCCCC(=O)O)c(F)c1F)C(=O)C(C(=O)Nc1ccc(C(F)(F)F)cc1-c1cncc(C(F)(F)F)c1)=C2O [Example 119, 7-[4-[[(4aR)-4-Hydroxy-4a-methyl-2-oxo-3-[[4-(trifluoromethyl)-2-[5-(trifluoromethyl)pyridin-3-yl]phenyl]carbamoyl]-6,7-dihydro-5H-pyrrolo[1,2-b]pyridazin-1-yl]methyl]-2,3-difluorophenyl]hept-6-ynoate] | 9.2 µM |
| C[C@]12CCCN1N(Cc1cccc(F)c1F)C(=O)C(C(=O)Nc1ccc(C(F)(F)F)cc1-c1ncnc(C#N)c1Cl)=C2O [Example 23] | 6.9 µM |
| COc1cccc(-c2cc(C(F)(F)F)ccc2NC(=O)C2=C(O)[C@@]3(C)CCCN3N(Cc3cccc(F)c3F)C2=O)n1 [Example 93] | 17.4 µM |
| C[C@]12CCCN1N(Cc1ccc(CCCOCCCO)c(F)c1F)C(=O)C(C(=O)Nc1ccc(C(F)(F)F)cc1-c1ccc(C(F)(F)F)nc1)=C2O [Example 141] | 7.8 µM |
| C[C@]12CCCN1N(Cc1cccc(F)c1F)C(=O)C(C(=O)Nc1ccc(C(F)(F)F)cc1-c1cncc(C#N)c1)=C2O [Example 82] | 11.1 µM |
| C[C@]12CCCN1N(Cc1cccc(F)c1F)C(=O)C(C(=O)Nc1ccc(Br)cc1)=C2O [Example 77] | 8.9 µM |
| COc1cncc(-c2cc(C(F)(F)F)ccc2NC(=O)C2=C(O)[C@@]3(C)CCCN3N(Cc3cccc(F)c3F)C2=O)c1 [Example 81] | 17.5 µM |
| C[C@]12CCCN1N(Cc1cccc(F)c1F)C(=O)C(C(=O)Nc1ccc(C(F)(F)F)cc1-c1cncc(C(F)(F)F)c1)=C2O [Example 91] | 15.7 µM |
| C[C@]12CCCN1N(Cc1ccc(OCCN3CCOCC3)c(F)c1F)C(=O)C(C(=O)Nc1ccc(C(F)(F)F)cc1-c1ccc(C(F)(F)F)nc1)=C2O [Example 161] | 11.5 µM |
| C[C@]12CCCN1N(Cc1ccc(Cl)cc1)C(=O)C(C(=O)Nc1ccc(C(F)(F)F)cc1-c1cc(C(F)(F)F)ncn1)=C2O [Example 182] | 5.1 µM |
| C[C@]12CCCN1N(Cc1cccc(F)c1F)C(=O)C(C(=O)Nc1ccc(Cl)cn1)=C2O [Example 79] | 6.7 µM |
| C[C@]12CCCN1N(Cc1cccc(OC(F)F)c1)C(=O)C(C(=O)Nc1ccc(C(F)(F)F)cc1-c1ccc(C(F)(F)F)nc1)=C2O [Example 167] | 4.3 µM |
| C[C@@]12CCCN1N(Cc1ccc(OCCN3CCOCC3)c(F)c1F)C(=O)C(C(=O)Nc1ccc(C(F)(F)F)cc1-c1cc(C(F)(F)F)ncn1)=C2O [Example 108] | 26.1 µM |
| Cc1c(C#N)ncnc1-c1cc(C(F)(F)F)ccc1NC(=O)C1=C(O)[C@@]2(C)CCCN2N(Cc2cccc(F)c2F)C1=O [Example 24] | 8.1 µM |
| C[C@]12CCCN1N(Cc1cccc(F)c1F)C(=O)C(C(=O)Nc1ccc(C(F)(F)F)cc1-c1cnc(Cl)c(C#N)c1)=C2O [Example 68, (4aR)—N-[2-(6-Chloro-5-cyanopyridin-3-yl)-4-(trifluoromethyl)phenyl]-1-[(2,3-difluorophenyl)methyl]-4-hydroxy-4a-methyl-2-oxo-6,7-dihydro-5H-pyrrolo[1,2-b]pyridazine-3-carboxamide] | 2.6 µM |
| C[C@]12CCCN1N(Cc1cccc(OC(F)F)c1)C(=O)C(C(=O)Nc1ccc(C(F)(F)F)cc1-c1cc(C(F)(F)F)ncn1)=C2O [Example 177] | 11.1 µM |
| Cc1ccc(CN2C(=O)C(C(=O)Nc3ccc(C(F)(F)F)cc3-c3cc(C(F)(F)F)ncn3)=C(O)[C@@]3(C)CCCN23)cc1 [Example 187] | 6.7 µM |
| COc1cc(C)c(-c2cc(C(F)(F)F)ccc2NC(=O)C2=C(O)[C@@]3(C)CCCN3N(Cc3cccc(F)c3F)C2=O)cn1 [Example 80] | 12.5 µM |

The remaining lines, values ahead:

| IC50 | SMILES |
| --- | --- |
| 1.3 µM | C[C@]12CCCN1N(Cc1ccccc1F)C(=O)C(C(=O)Nc1ccc(C(F)(F)F)cc1-c1ccc(C(F)(F)F)nc1)=C2O [Example 200] |
| 7.8 µM | CN1[C@@H](C(C)(C)C)C(O)=C(C(=O)Nc2ccc(Br)c(C(F)(F)F)n2)C(=O)N1Cc1cccc(F)c1F [Example 242] |
| 4.8 µM | C[C@]12CCCN1N(Cc1cccc(Cl)c1F)C(=O)C(C(=O)Nc1ccc(C(F)(F)F)cc1-c1cc(C(F)(F)F)ncn1)=C2O [Example 209] |
| 17.9 µM | C[C@]12CCCN1N(Cc1ccc(Cl)cc1)C(=O)C(C(=O)Nc1cc(F)c(Br)c(F)c1)=C2O [Example 223] |
| 13.4 µM | CN(CCOc1ccc(CN2C(=O)C(C(=O)Nc3ccc(C(F)(F)F)cc3-c3cc(C(F)(F)F)ncn3)=C(O)C3(CCC3)N2C)c(F)c1F)C1CCOC1 (stereo not drawn) [Example 338, 6-[[2,3-Difluoro-4-[2-[methyl(oxolan-3-yl)amino]ethoxy]phenyl]methyl]-9-hydroxy-5-methyl-7-oxo-N-[4-(trifluoromethyl)-2-[6-(trifluoromethyl)pyrimidin-4-yl]phenyl]-5,6-diazaspiro[3.5]non-8-ene-8-carboxamide] |
| 4.6 µM | Cc1cccc(CN2C(=O)C(C(=O)Nc3cc(F)c(Br)c(F)c3)=C(O)[C@@]3(C)CCCN23)c1F [Example 195] |
| 6.6 µM | Cc1c(-c2cc(C(F)(F)F)ccc2NC(=O)C2=C(O)[C@H](C(C)(C)C)N(C)N(Cc3ccc(OCCN4CCOCC4)c(F)c3F)C2=O)ncnc1C(F)(F)F [Example 278] |
| 8.6 µM | CCN1[C@@H](C(C)(C)C)C(O)=C(C(=O)Nc2cc(F)c(Br)c(F)c2)C(=O)N1Cc1cccc(F)c1F [Example 246] |
| 13.4 µM | CCC1(CC)C(O)=C(C(=O)Nc2ccc(Cl)cc2-c2ccc(C(F)(F)F)nc2)C(=O)N(Cc2ccc(OCCN3CCOCC3)c(F)c2F)N1C [Example 294] |
| 7.8 µM | CN1N(Cc2ccc(OCCN3CCOCC3)c(F)c2F)C(=O)C(C(=O)Nc2ccc(C(F)(F)F)cc2-c2ncnc(C(F)(F)F)c2Cl)=C(O)C12CCC2 [Example 284] |
| 3 µM | CN1N(Cc2cccc(F)c2F)C(=O)C(C(=O)Nc2ccc(Br)c(C(F)(F)F)n2)=C(O)C12CCCC2 [Example 263] |
| 2.6 µM | CN1N(Cc2cccc(F)c2F)C(=O)C(C(=O)Nc2ccc(C(F)(F)F)cc2-c2ccc(C(F)(F)F)nc2)=C(O)C12CCC2 [Example 301] |
| 18.4 µM | CCC1(CC)C(O)=C(C(=O)Nc2ccc(Cl)cc2-c2cc(C(F)(F)F)ncn2)C(=O)N(Cc2ccc(OCCN3CCOCC3)c(F)c2F)N1C [Example 292] |
| 4.7 µM | C[C@]12CCCN1N(Cc1cc(F)ccc1Br)C(=O)C(C(=O)Nc1cc(F)c(Br)c(F)c1)=C2O [Example 217] |
| 9.1 µM | CN1[C@@H](C(C)(C)C)C(O)=C(C(=O)Nc2cc(F)c(Br)c(F)c2)C(=O)N1Cc1cccc(F)c1F [Example 240] |

same assay, conditions: read-out: IC50 against 33PO4 uptake into human NaPi-IIb-expressing cells

| IC50 | SMILES |
| --- | --- |
| 7.4 µM | CCCN(CCN(C)CCOC)c1ccc(CN2C(=O)C(C(=O)Nc3ccc(C(F)(F)F)cc3-c3cc(C(F)(F)F)ncn3)=C(O)C3(CCCC3)N2C)c(F)c1F [Example 444] |
| 21.4 µM | CN1N(Cc2ccc(OCCN3CCN(CCO)CC3)c(F)c2F)C(=O)C(C(=O)Nc2ccc(C(F)(F)F)cc2-c2cc(C(F)(F)F)ncn2)=C(O)C12CCCC2 [Example 376] |
| 18.2 µM | C[C@@H]1COC[C@H](C)N1CCOc1ccc(CN2C(=O)C(C(=O)Nc3ccc(C(F)(F)F)cc3-c3cc(C(F)(F)F)ncn3)=C(O)C3(CCCC3)N2C)c(F)c1F [Example 370] |
| 21.9 µM | COCCCN(C)C(=O)c1cc(CN2C(=O)C(C(=O)Nc3ccc(C(F)(F)F)cc3-c3cc(C(F)(F)F)ncn3)=C(O)C3(CCCC3)N2C)c(F)c(F)c1OCCN(C)CCOC [Example 438] |
| 16.9 µM | COC(C)(C)CN(C)CCOc1ccc(CN2C(=O)C(C(=O)Nc3ccc(C(F)(F)F)cc3-c3cc(C(F)(F)F)ncn3)=C(O)C3(CCC3)N2C)c(F)c1F [Example 350] |
| 8.3 µM | COCC(C)(C)N(C)CCOc1ccc(CN2C(=O)C(C(=O)Nc3ccc(C(F)(F)F)cc3-c3cc(C(F)(F)F)ncn3)=C(O)C3(CCC3)N2C)c(F)c1F [Example 349] |
| 22.6 µM | COCCN(C)CCOc1c(-c2cccnc2)cc(CN2C(=O)C(C(=O)Nc3ccc(C(F)(F)F)cc3-c3cc(C(F)(F)F)ncn3)=C(O)C3(CCCC3)N2C)c(F)c1F [Example 440, 9-[[2,3-Difluoro-4-[2-[2-methoxyethyl(methyl)amino]ethoxy]-5-(3-pyridinyl)phenyl]methyl]-6-hydroxy-10-methyl-8-oxo-N-[4-(trifluoromethyl)-2-[6-(trifluoromethyl)pyrimidin-4-yl]phenyl]-9,10-diazaspiro[4.5]dec-6-ene-7-carboxamide] |
| 23 µM | CN1N(Cc2ccc(OCCOCCOCCOCCNC(=O)[C@@H](O)[C@H](O)[C@@H](O)[C@@H](O)CO)c(F)c2F)C(=O)C(C(=O)Nc2ccc(C(F)(F)F)cc2-c2cc(C(F)(F)F)ncn2)=C(O)C12CCCC2 [Example 428, 7-[[2,3-Difluoro-4-[2-[2-[2-[2-[[(2S,3R,4S,5S)-2,3,4,5,6-pentahydroxyhexanoyl]amino]ethoxy]ethoxy]ethoxy]ethoxy]phenyl]methyl]-10-hydroxy-6-methyl-8-oxo-N-[4-(trifluoromethyl)-2-[6-(trifluoromethyl)pyrimidin-4-yl]phenyl]-6,7-diazaspiro[4.5]dec-9-ene-9-carboxamide] |
| 15.8 µM | CN1N(Cc2ccc(OCCCOC[C@H](O)CO)c(F)c2F)C(=O)C(C(=O)Nc2ccc(C(F)(F)F)cc2-c2cc(C(F)(F)F)ncn2)=C(O)C12CCCC2 [Example 392] |
